According to patent US20240238361A1, “METHODS OF TREATING FIBROSIS AND HYPOXIA-ASSOCIATED DAMAGE TO PERIPHERAL NERVES” (Temple Therapeutics BV, priority 2021, published 2024):
“Also recorded” adds a separate entry of the source. Where a SMILES comes first, the peptide text is derived from it.

How the values were obtained:
[1] = room temperature; cited from earlier work
[2] = test system: hypoxic primary rat fibroblasts; experiment: Alamar Blue viability / proliferation assay under hypoxia; format: cell-based; conditions: for cell proliferation vs untreated controls: various concentrations
Method: In order to mimic the hypoxic micro-environment, primary rat fibroblasts were exposed to hypoxia. Cells were exposed to 2 separate conditions—continuous and episodic hypoxia. For continuous hypoxia, cells were incubated in a hypoxic chamber (2% 02) for 48 h and treated with or without L-alanyl-L-glutamine and no restoration to normoxia as shown in FIG. 1C. Cells were collected and processed for experiments subsequently. For episodic hypoxia, cells were incubated in a hypoxic chamber (2% 02) for 2 h followed by restoration to normoxia for 48 h at which time cells were treated with or without L-alanyl-L-glutamine, as shown by FIG. 1C. Cells were collected after 48 h and processed for experiments subsequently. Proliferation of primary fibroblasts were determined by alamar blue assay (Invitrogen). Briefly, cells were plated in a 96-well plate treated with or without L-alanyl-L-glutamine under aforementioned hypoxic conditions for 48 h. The interaction of alamar blue with the cells was analyzed for 4 h by measuring fluorescence readings at 540 nm and 585 nm respectively. Proliferation was also detected using flow cytometry based EdU assay using EdU-Click 488 (baseclick).

[3] = test system: hypoxic primary rat fibroblasts; experiment: Phosphoproteomics (LC-MS/MS) and pathway analysis under chronic hypoxia; format: cell-based; conditions: vs untreated chronic hypoxic samples
Method: (§1) In order to mimic the hypoxic micro-environment, primary rat fibroblasts were exposed to hypoxia. Cells were exposed to 2 separate conditions—continuous and episodic hypoxia. For continuous hypoxia, cells were incubated in a hypoxic chamber (2% 02) for 48 h and treated with or without L-alanyl-L-glutamine and no restoration to normoxia as shown in FIG. 1C. Cells were collected and processed for experiments subsequently.
Following fibroblast isolation from sciatic nerves of rats, (8E10 primary fibroblasts) were lysed in 80 ul of 8M Urea, 0.1M ammonium bicarbonate, phosphatase inhibitors (Sigma P5726&P0044) by sonication (Bioruptor, 10 cycles, 30 seconds on/off, Diagenode, Belgium) and proteins were digested as described previously (PMID:27345528). Shortly, proteins were reduced with 5 mM TCEP for 60 min at 37° C. and alkylated with 10 mM chloroacetamide for 30 min at 37° C. After diluting samples with 100 mM ammonium bicarbonate buffer to a final urea concentration of 1.6M, proteins were digested by incubation with sequencing-grade modified trypsin (1/50, w/w; Promega, Madison, Wisconsin) for 12 h at 37° C. After acidification using 5% TFA, peptides were desalted using C18 reverse-phase spin columns (Macrospin, Harvard Apparatus) according to the manufacturer's instructions, dried under vacuum and stored at −20° C. until further use. […]

[4] = test system: hypoxic primary rat fibroblasts; experiment: Western blotting of whole cell lysates for HIF1-α signaling and pro-fibrotic proteins; format: cell-based
Method: In order to mimic the hypoxic micro-environment, primary rat fibroblasts were exposed to hypoxia. Cells were exposed to 2 separate conditions—continuous and episodic hypoxia. For continuous hypoxia, cells were incubated in a hypoxic chamber (2% 02) for 48 h and treated with or without L-alanyl-L-glutamine and no restoration to normoxia as shown in FIG. 1C. Cells were collected and processed for experiments subsequently. For episodic hypoxia, cells were incubated in a hypoxic chamber (2% 02) for 2 h followed by restoration to normoxia for 48 h at which time cells were treated with or without L-alanyl-L-glutamine, as shown by FIG. 1C. Cells were collected after 48 h and processed for experiments subsequently. Protein samples were prepared by resuspending cells growing in 6-well plates in RIPA lysis and extraction buffer (Thermo) containing protease and phosphatase inhibitors (Roche). Protein concentrations were quantified using protein assay dye reagent (Bio-Rad). Samples were mixed with 4× LDS Sample buffer (Thermo) and denatured by boiling at 95° C. for 6 minutes. Following protein concentration estimations, equal protein samples containing 25 μg total protein were loaded and resolved in 4-15% Mini protean TGX gels (Bio-Rad). Fractionated proteins were transferred to 0.2 μm nitrocellulose membranes using Trans-Blot® Turbo™ Transfer System (Bio-Rad). Membranes were blocked with 5% Non-Fat dry milk and incubated overnight with primary antibodies. The following primary antibodies along with their respective concentrations were used during overnight incubation. Anti-collagen I (1:500; ab34710) and anti-collagen IV (1:500; ab6586) were purchased from Abcam. Anti-heat shock protein 47 (HSP-47) (1:400; sc-13150) and anti-fibronectin (1:500; sc-8422) were ordered from Santa Cruz Biotechnology. Other antibodies including anti-SMAD 2/3 (1:500; 85865S), anti-GAPDH (1:5000; 97166S) and anti-HIF-1α (1:750; 14179S) were from Cell Signaling Technology. Horseradish peroxidase-conjugated secondary antibodies at a concentration of 1:5000 were used for immunoreactivity and detection of protein bands were does using Pierce™ ECL Plus Western Blotting Substrate (Thermo) and on the ChemiDoc Imaging Systems (Bio-Rad).

[5] = test system: hypoxic primary rat fibroblasts; experiment: Immunofluorescence of HIF1-α signaling and pro-fibrotic proteins; format: cell-based
Method: as §1
For episodic hypoxia, cells were incubated in a hypoxic chamber (2% 02) for 2 h followed by restoration to normoxia for 48 h at which time cells were treated with or without L-alanyl-L-glutamine, as shown by FIG. 1C. Cells were collected after 48 h and processed for experiments subsequently.
For immunofluorescence microscopy, cells were grown on 4-well chamber slides (IBIDI) under appropriate hypoxic conditions with or without L-alanyl-L-glutamine treatment. Cells were washed with ice-cold PBS followed by fixation with 4% paraformaldehyde. Fixed cells were permeabilized with 0.5% Triton X-100 and incubated with blocking reagent (1% BSA in PBS) for 30 minutes, prior to overnight incubation with appropriate primary antibodies. After wash steps, cultures were labeled and incubated with secondary antibodies and 4′-6-didiamino-2-phenylindole, dihydrochloride (DAPI, Sigma) were used to stain the nuclei.
Fluorescence microscopy image analysis was performed using NIKON Ti2 inverted microscope equipped with Photometrics Prime 95B camera for fluorescence imaging. All images were digitally processed, all quantifications and further arrangement for presentation was done using NIS-Elements Advanced Research analysis software. For quantification analysis, pictures from random fields in independent wells were taken at 10× and 40× magnification objectives and the total protein expression for each marker was determined in reference to the total number of cells based on DAPI quantification.
For immunofluorescence, the primary antibodies along with their respective concentrations are listed below. Anti-collagen I (1:500; ab34710), anti-collagen IV (1:500; ab6586) and anti-α-SMA (1:500; ab124964) were purchased from Abcam. Anti-HSP-47 (1:250; sc-13150), anti-fibronectin (1:250; sc-8422), and anti-HIF-1α (1:500; sc-13515) were ordered from Santa Cruz Biotechnology. Anti-SMAD 2/3 (1:500; 85865S) was purchased from Cell Signaling Technology. In addition to this, the following secondary antibodies: Goat anti-mouse Alexa Fluor (AF) 488 (A11029), goat anti-mouse AF546 (A11030), goat anti-rabbit AF488 (A11034) and goat anti-rabbit AF546 (A11010) from Life Technologies. DAPI (D9564) from Sigma was used at a concentration of 1:1000.

[6] = continuous hypoxia 48 h, 1 mM, 10 mM and 100 mM, dose-dependent
[7] = continuous hypoxia 48 h, various concentrations
[8] = episodic hypoxia 2 h, then treatment 48 h

In the case of `NC(=O)CC[C@H](N)C(=O)O` [L-glutamine], the water solubility [1] is given as “about 40 g/L”.

In the case of `C[C@H](N)C(=O)N[C@@H](CCC(N)=O)C(=O)O` [L-alanyl-L-glutamine] (H-Ala-Gln-OH), the “viability and cell proliferation” value ([2]; Alamar Blue, 48 h, hypoxic, 1 mM, 10 mM and 100 mM) is reported as “does not affect the viability and cell proliferation”, the “cell proliferation vs untreated controls” value ([2]; continuous (48 h) hypoxia) is reported as “no change in cell proliferation” and the “cell proliferation vs untreated controls” value ([2]; episodic (2 h) hypoxia) is reported as “no change in cell proliferation”. For the same compound, the “pro-fibrotic factors Fndel, Fndc3b, Col1a1, Akt1s1 and Pxn (phosphoproteome)” value [3] was “significantly downregulated”, the “HSP47 expression (western blot)” value ([4]; continuous hypoxia 48 h) was “reduces expression of HSP47 but we did not observe a significant downregulation” and the “HIF1-α expression (western blot)” value ([4]; continuous hypoxia 48 h, 1 mM, 10 mM and 100 mM) was “significantly down regulated”. The “Collagen-I expression (western blot)” value [4, 6] was “significantly reduced”, the “Collagen-IV expression (western blot)” value [4, 6] was “significantly reduced” and the “Fibronectin expression (western blot)” value [4, 6] was “significantly reduced”. The “SMAD 2/3 expression (western blot)” value ([4]; continuous hypoxia 48 h, 100 mM only) was “significantly downregulated”, the “COL-IV expression (western blot)” value ([4]; episodic hypoxia, 1 mM) was “significant downregulation” and the “HIF1-α signaling factors and pro-fibrosis mechanistic targets (western blot)” value ([4]; episodic hypoxia, across the various concentrations) was “not any significant downregulation”. For the same compound, the “Collagen-I expression (immunofluorescence)” value [5, 7] was “significantly reduced in a non-dose dependent manner”, the “Collagen-IV expression (immunofluorescence)” value [5, 7] was “dose-dependent downregulation” and the “Fibronectin expression (immunofluorescence)” value [5, 7] was “significantly reduced in a non-dose dependent manner”. The “HIF1-α expression (immunofluorescence)” value [5, 7] was “significant reduction; also recorded: dose-dependent downregulation”, the “HSP47 expression (immunofluorescence)” value [5, 7] was “dose-dependent downregulation” and the “SMAD 2/3 expression (immunofluorescence)” value [5, 7] was “significant reduction; also recorded: dose-dependent downregulation”. For the same compound, the “Collagen-I expression (immunofluorescence)” value [5, 8] was “significantly reduced at 1 mM L-alanyl-L-glutamine, but remained constant thereafter”, the “Collagen-IV expression (immunofluorescence)” value [5, 8] was “effectively reduces expression” and the “Fibronectin expression (immunofluorescence)” value [5, 8] was “effectively reduces expression”. For the same compound, the “HIF1-α expression (immunofluorescence)” value [5, 8] was “significant downregulation”, the “HSP47 expression (immunofluorescence)” value [5, 8] was “effectively reduces expression” and the “SMAD 2/3 expression (immunofluorescence)” value [5, 8] was “significant downregulation”.
